The values below are quoted from earlier work in patent publication US12350300B2, “Use of dopamine producing products to increase vaccine efficacy” (Iowa State University Research Foundation, Inc., priority 2021, dated 2025).

pEC50: −log10 of the molar value.

In one data set the test system is circular muscle. The settings on record: read-out: EC50, contractions.
The next data set relates to longitudinal muscle. Conditions: read-out: EC50, relaxation.
A further data set has as its system mouse colitis. The settings on record: Herak-Perkovic 2001.

Turning to `NCCc1ccc(O)c(O)c1` [dopamine], the pEC50 (as a rule, the EC50 on a negative log10 scale, so that one unit is a factor of ten) with circular muscle was 5.20; in the data set with longitudinal muscle it was 4.54. For the same compound, the “effect against the development of inflammation” value with mouse colitis is “protective effect”.
